Assay results as given in article PMC9029360, “Cyclooxygenase-Inhibiting Platinum(IV) Prodrugs with Potent Anticancer Activity” (Pharmaceutics, 2022).
Read-outs that look alike come from different tables or passages of the source.

Assays:
[1] = tested on: HT29 colon cancer cell line; test: In vitro cytotoxicity MTT assay, HT29 colon; assay type: cell-based; details: n = 3
U87 glioblastoma [2] = test: In vitro cytotoxicity MTT assay, U87 glioblastoma; assay type: cell-based; details: 72 h drug exposure, n = 3
MCF-7 breast [3] = test: In vitro cytotoxicity MTT assay, MCF-7 breast; assay type: cell-based; details: n = 3
A2780 ovarian [4] = test: In vitro cytotoxicity MTT assay, A2780 ovarian; assay type: cell-based; details: 72 h drug exposure, n = 3
H460 lung [5] = test: In vitro cytotoxicity MTT assay, H460 lung; assay type: cell-based; details: n = 3
A431 skin [6] = test: In vitro cytotoxicity MTT assay, A431 skin; assay type: cell-based; details: n = 3
[7] = tested on: Du145 prostate cancer cell line; test: In vitro cytotoxicity MTT assay, Du145 prostate; assay type: cell-based; details: n = 3
BE2-C neuroblastoma [8] = test: In vitro cytotoxicity MTT assay, BE2-C neuroblastoma; assay type: cell-based; details: 72 h drug exposure, n = 3
SJ-G2 glioblastoma [9] = test: In vitro cytotoxicity MTT assay, SJ-G2 glioblastoma; assay type: cell-based; details: 72 h drug exposure, n = 3
MIA pancreas [10] = test: In vitro cytotoxicity MTT assay, MIA pancreas; assay type: cell-based; details: 72 h drug exposure, n = 3
[11] = tested on: MCF10A breast cell line (non-tumour derived); test: In vitro cytotoxicity MTT assay, non-tumour MCF10A breast; assay type: cell-based; details: MCF10A (non-cancerous), 72 h drug exposure, n = 3
[12] = tested on: cisplatin-resistant ADDP ovarian (subclone of A2780 cell line); test: In vitro cytotoxicity MTT assay, cisplatin-resistant ADDP ovarian; assay type: cell-based; details: ADDP (cisplatin-resistant), MTT, 72 h drug exposure, n = 3
[13] = Lipophilicity by RP-HPLC (log kw); assay type: physicochemical; details: capacity factor extrapolated to 100% water
Description: HPLC experiments were executed on an Agilent (Melbourne, Australia) Technologies 1260 Infinity instrument equipped with a Phenomenex (Sydney, Australia) Onyx^TM Monolithic C18 reverse phase column (100 × 4.6 mm, 130 Å). The mobile phase was comprised of 0.06% TFA in water (solvent A) and 0.06% TFA in an acetonitrile-water mixture (9:1) (solvent B). A sample injection volume of 10 µL was used at a flow rate of 1 mL/min and eluted over a gradient of 0–100% for 15 min. A PDA was used to detect the eluting peaks at 254 nm. Lipophilicity experiments to determine logkw values were undertaken following previously published methods. Rather than a gradient, different isocratic ratios ranging from 28–56% of solvent B were employed and the retention times measured for each complex. Potassium iodide was used as an external dead volume marker to determine the dead time of the column. The following equation was used to calculate the capacity factors:(1) k=tr−t0/t0 where k is the capacity factor, tr is the retention time of the analyte, and t0 is the dead time. Following this, log k was plotted against the percentage of ACN. Five different concentrations of ACN were used to produce a linear plot comprised of R^2 > 0.99. This graph produced the following equation:(2) logk=Sφ+logkw where S is the slope, φ is the % ACN, and the y-intercept, represented as logkw , is the capacity factor of the compound in 100% water.
Lipophilicity studies were carried out to determine the logkw of each complex. This was ascertained through a RP-HPLC based approach whereby complexes were eluted at several isocratic ratios. In turn, retention times were employed as in Equation (1), where the capacity factor (k) was calculated. The log k value at each ratio was then plotted against the percentage of the organic solvent used in solvent B, producing a linear equation that allowed for logkw to be extrapolated (Figure S43). The logkw value represents the retention factor in a 100% aqueous solution; thus, higher values indicate more lipophilic compounds. While this method for determining lipophilicity is slightly different from the shake-flask method, it has been used previously to compare a series of complexes that are structurally similar and is fitting for this group of complexes.

[14] = Preliminary NMR reduction study with ascorbic acid; assay type: physicochemical; details: D2O with 10X PBS, 37 °C
Description: Given that 1–4 were designed on the premise of functionating as prodrugs, it is anticipated that these complexes be reduced to platinum(II) and release their respective axial ligands, which will allow each component to exert its activity. To explore this possibility, preliminary NMR reduction studies were undertaken for 3. The sample was prepared in D2O with 10X PBS before ascorbic acid was added, and the sample was monitored by ^1H NMR at 37 °C. After the addition of ascorbic acid, resonances corresponding to the platinum(II) species appeared, with the intensities increasing over time, while the peaks correlating to platinum(IV) species decreased (Figure 5). Following this, ^195Pt NMR was carried out in order to confirm that the platinum(II) species remained intact.

[15] = tested on: HT29 colon cancer cell line; details: MTT, 72 h, cited from earlier work
U87 glioblastoma [16] = details: MTT, 72 h, cited from earlier work
MCF-7 breast [17] = details: MTT, 72 h, cited from earlier work
A2780 ovarian [18] = details: MTT, 72 h, cited from earlier work
H460 lung [19] = details: MTT, 72 h, cited from earlier work
A431 skin [20] = details: MTT, 72 h, cited from earlier work
[21] = tested on: Du145 prostate cancer cell line; details: MTT, 72 h, cited from earlier work
BE2-C neuroblastoma [22] = details: MTT, 72 h, cited from earlier work
SJ-G2 glioblastoma [23] = details: MTT, 72 h, cited from earlier work
MIA pancreas [24] = details: MTT, 72 h, cited from earlier work
[25] = tested on: MCF10A breast cell line (non-tumour derived); details: MTT, 72 h, cited from earlier work
[26] = tested on: cisplatin-resistant ADDP ovarian (subclone of A2780 cell line); details: MTT, 72 h, ref [2] Macias et al., Eur. J. Chem. 2015; cited from earlier work
[27] = ref [2] Macias et al., Eur. J. Chem. 2015
[28] = ref [1] Deo et al., Dalton Trans. 2019

Compound	GI50 (U87 glioblastoma [2]) [nM]	GI50 (SJ-G2 glioblastoma [9]) [nM]	GI50 (MIA pancreas [10]) [nM]	GI50 ([1]; 72 h drug exposure) [nM]	GI50 (MCF-7 breast [3]; 72 h drug exposure) [nM]	GI50 (A2780 ovarian [4]) [nM]	GI50 (H460 lung [5]; 72 h drug exposure) [nM]	GI50 (A431 skin [6]; 72 h drug exposure) [nM]	GI50 ([7]; 72 h drug exposure) [nM]	GI50 (BE2-C neuroblastoma [8]) [nM]	GI50 [11] [nM]	GI50 [12] [nM]	Log kw [13]	further results
COc1ccc2c(c1)c(CC(=O)O)c(C)n2C(=O)c1ccc(Cl)cc1 [Indomethacin, indomethacin]	> 50000	> 50000	> 50000	–	–	–	–	–	–	–	–	–	–	GI50 ([1]; Homo sapiens, HT-29, 72 h drug exposure): > 50000 nM; GI50 (MCF-7 breast [3]; Homo sapiens, MCF7, 72 h drug exposure): > 50000 nM; GI50 (A2780 ovarian [4]; Homo sapiens): 5700 ± 800 nM; GI50 (H460 lung [5]; Homo sapiens, NCI-H460, 72 h drug exposure): > 50000 nM; GI50 (A431 skin [6]; Homo sapiens, A-431, 72 h drug exposure): > 50000 nM; GI50 ([7]; Homo sapiens, DU-145, 72 h drug exposure): > 50000 nM; GI50 (BE2-C neuroblastoma [8]; Homo sapiens, BE(2)-C): > 50000 nM; GI50 ([11]; Homo sapiens, MCF-10A): > 50000 nM; GI50 ([12]; Homo sapiens, A2780): > 50000 nM
[Pt(Phen)(SSDACH)(Aspirin)(OH)](NO3)2 [compound 3]	600 ± 60	360 ± 60	160 ± 30	140 ± 10	390 ± 80	260 ± 30	350 ± 20	670 ± 100	140 ± 10	620 ± 90	210 ± 29	200	0.41	reduction by ascorbic acid (1H and 195Pt NMR) [14]: reduction to its platinum(II) congener
Cc1c(C)c2cccnc2c2ncccc12.N[C@H]1CCCC[C@@H]1N.O=[N+]([O-])[O-].O=[N+]([O-])[O-].[OH-].[OH-].[Pt+4] [56MESS(IV)]	190 ± 23	210 ± 45	43 ± 2.5	36 ± 7	480 ± 140	56 ± 7.1	190 ± 150	120 ± 22	15 ± 2.6	240 ± 22	61 ± 7.3	170 ± 120	–	–
CC(=O)Oc1ccccc1C(=O)[O-].Cc1c(C)c2cccnc2c2ncccc12.N[C@H]1CCCC[C@@H]1N.O=[N+]([O-])[O-].O=[N+]([O-])[O-].[OH-].[Pt+4] [compound 4, [Pt(56Me2Phen)(SSDACH)(Aspirin)(OH)](NO3)2]	24	63 ± 6	8 ± 1	7 ± 1	36 ± 10	22	15 ± 1	31	3	98 ± 21	9 ± 2	12	0.65	–
N.N.O=C([O-])C1(C(=O)[O-])CCC1.[Pt+2] [Carboplatin, carboplatin]	–	–	–	–	–	–	–	–	–	–	–	–	–	GI50 [15, 27]: > 50000 nM; GI50 (U87 glioblastoma [16]; [27]): > 50000 nM; GI50 (MCF-7 breast [17]; [27]): > 50000 nM; GI50 (A2780 ovarian [18]; [27]): 9200 ± 2900 nM; GI50 (H460 lung [19]; [27]): 14000 ± 1000 nM; GI50 (A431 skin [20]; [27]): 24300 nM; GI50 [21, 27]: 14700 nM; GI50 (BE2-C neuroblastoma [22]; [27]): 18700 nM; GI50 (SJ-G2 glioblastoma [23]; [27]): 5700 nM; GI50 (MIA pancreas [24]; [27]): > 50000 nM; GI50 [25, 27]: > 50000 nM; GI50 [26]: > 50000 nM
N[C@H]1CCCC[C@@H]1N.O=[N+]([O-])[O-].O=[N+]([O-])[O-].[OH-].[OH-].[Pt+4].c1cnc2c(c1)ccc1cccnc12 [PHENSS(IV)]	–	–	–	–	–	–	–	–	–	–	–	–	–	GI50 [15, 28]: 710 ± 300 nM; GI50 (U87 glioblastoma [16]; [28]): 4900 ± 610 nM; GI50 (MCF-7 breast [17]; [28]): 16000 nM; GI50 (A2780 ovarian [18]; [28]): 800 ± 84 nM; GI50 (H460 lung [19]; [28]): 1700 ± 200 nM; GI50 (A431 skin [20]; [28]): 4300 ± 530 nM; GI50 [21, 28]: 310 ± 92 nM; GI50 (BE2-C neuroblastoma [22]; [28]): 3000 ± 530 nM; GI50 (SJ-G2 glioblastoma [23]; [28]): 1700 nM; GI50 (MIA pancreas [24]; [28]): 3400 nM; GI50 [25, 28]: 1700 nM
COc1ccc2c(c1)c(CC(=O)[O][Pt-2]13([OH])([NH2+]C4CCCCC4[NH2+]1)[n+]1cccc4ccc5ccc[n+]3c5c41)c(C)n2C(=O)c1ccc(Cl)cc1.O=[N+]([O-])[O-].O=[N+]([O-])[O-] (stereo not shown) [compound 1, [Pt(Phen)(SSDACH)(Indomethacin)(OH)](NO3)2]	–	970 ± 290	330	83 ± 40	740 ± 230	390 ± 87	370 ± 55	400 ± 84	160 ± 54	–	340 ± 100	350 ± 81	1.08	–
O=C1[O][Pt]2([NH][C@@H]3CCCC[C@H]3[NH]2)[O]C1=O [Oxaliplatin, oxaliplatin]	–	–	–	–	–	–	–	–	–	–	–	–	–	GI50 [15, 27]: 900 ± 200 nM; GI50 (U87 glioblastoma [16]; [27]): 1800 ± 200 nM; GI50 (MCF-7 breast [17]; [27]): 500 ± 100 nM; GI50 (A2780 ovarian [18]; [27]): 160 nM; GI50 (H460 lung [19]; [27]): 1600 ± 100 nM; GI50 (A431 skin [20]; [27]): 4100 ± 500 nM; GI50 [21, 27]: 2900 ± 400 nM; GI50 (BE2-C neuroblastoma [22]; [27]): 900 ± 200 nM; GI50 (SJ-G2 glioblastoma [23]; [27]): 3000 ± 1200 nM; GI50 (MIA pancreas [24]; [27]): 900 nM; GI50 [26]: 822 ± 130 nM
COc1ccc2c(c1)c(CC(=O)[O][Pt-2]13([OH])([NH2+]C4CCCCC4[NH2+]1)[n+]1cccc4c(C)c(C)c5ccc[n+]3c5c41)c(C)n2C(=O)c1ccc(Cl)cc1.O=[N+]([O-])[O-].O=[N+]([O-])[O-] (stereo not shown) [compound 2, [Pt(56Me2Phen)(SSDACH)(Indomethacin)(OH)](NO3)2]	47 ± 4.9	170 ± 19	21 ± 2	13 ± 3.6	37 ± 2.3	34 ± 8.6	22 ± 4.2	40 ± 14	7.5 ± 3.6	130 ± 41	23 ± 8.2	24 ± 6.1	1.28	–
Cc1c(C)c2cccnc2c2ncccc12.N[C@H]1CCCC[C@@H]1N.[Cl-].[Cl-].[Pt+2] [56MESS(II)]	76 ± 8.7	150	22	15 ± 6.2	33 ± 12	39 ± 7.7	28 ± 4.7	36 ± 11	10 ± 1.3	86 ± 3	25 ± 10	27 ± 4.1	–	–
N[C@H]1CCCC[C@@H]1N.[Cl-].[Cl-].[Pt+2].c1cnc2c(c1)ccc1cccnc12 [PHENSS(II)]	1200 ± 340	440 ± 55	240 ± 22	87 ± 27	250 ± 41	290 ± 37	300 ± 32	340 ± 100	110 ± 27	390 ± 60	240 ± 60	230 ± 49	–	–
